For 39 compounds, IC50 results are on record in BindingDB's records for doi:10.1016/j.bmc.2010.11.049 (Bryn Mawr College, 2011).

The experiment in a line: Inhibition of HIV1 YU2 gp120 binding to CD4 expressing Cf2Th-CD4/CCR5 cells assessed as inhibition of viral infection after 48 hrs.
In the case of `CC1(C)Cc2c(sc(NC(=O)C(=O)Nc3ccc(Cl)c(F)c3)c2C#N)C(C)(C)N1` [N1-(4-chloro-3-fluorophenyl)-N2-(3-cyano-5,5,7,7-tetramethyl-4,5,6,7-tetrahydrothieno[2,3-c]pyridin-2-yl)oxalamide], the IC50 is greater than 100 µM. Then `CC1CCCCN1C(C)CNC(=O)C(=O)Nc1ccc(Cl)c(F)c1` (centres undefined) [N1-(4-chloro-3-fluorophenyl)-N2-(2-(2-methylpiperidin-1-yl)propyl)oxalamide], with greater than 100 µM. Then `CC1(C)CC(NC(=O)C(=O)Nc2ccc(Cl)c(F)c2)CC(C)(C)O1` [N1-(4-chloro-3-fluorophenyl)-N2-(2,2,6,6-tetramethyltetrahydro-2H-pyran-4-yl)oxalamide], with greater than 100 µM; and `CCOC(=O)[C@H]1CCCN(CCC(=O)Nc2ccc(Br)cc2)C1` [(3S)-1-(3-(4-bromophenylamino)-3-oxopropyl)-3-(ethoxycarbonyl)piperidinium], with greater than 100 µM; and `CC1(C)CC(NC(=O)CCC(=O)Nc2ccc(Br)cc2)CC(C)(C)N1` [N1-(4-bromophenyl)-N4-(2,2,6,6-tetramethylpiperidin-4-yl)succinamide], with greater than 100 µM. Then `CN1CCCC(ONC(=O)C(=O)Nc2ccc(Cl)c(F)c2)C1` (centres undefined) [N1-(4-chloro-3-fluorophenyl)-N2-(1-methylpiperidin-3-yloxy)oxalamide], with greater than 100 µM; and `O=C(Nc1ccc(Cl)c(F)c1)C(=O)Nc1cccc2[nH]ncc12` [N1-(4-chloro-3-fluorophenyl)-N2-(1H-indazol-4-yl)oxalamide], with greater than 100 µM. Consider `O=C(NCc1ccccc1CN1CCOCC1)C(=O)Nc1ccc(Cl)c(F)c1` [N1-(4-chloro-3-fluorophenyl)-N2-(2-(morpholinomethyl)benzyl)oxalamide], for which the IC50 worked out at 20.5 µM. Then `Cc1ccc(C(C)C)c(OCC(=O)NNC(=O)Nc2ccc(Cl)cc2)c1` [N-(4-chlorophenyl)-2-(2-(2-isopropyl-5-methylphenoxy)acetyl)hydrazinecarboxamide], with greater than 100 µM. Then `O=C(NC[C@@]12CCC[C@@H]1CNC2)C(=O)Nc1ccc(Cl)c(F)c1` [N1-(4-chloro-3-fluorophenyl)-N2-(((3aS,6aS)-octahydrocyclopenta[c]pyrrol-3a-yl)methyl)oxalamide], with 68.3 µM; and `COc1cc(Cl)ccc1NC(=O)C(=O)NC1CC(C)(C)NC(C)(C)C1` [N1-(4-chloro-2-methoxyphenyl)-N2-(2,2,6,6-tetramethylpiperidin-4-yl)oxalamide], with greater than 100 µM; and `O=C(NCC1CCN(CCN2CCOCC2)C1)C(=O)Nc1ccc(Cl)c(F)c1` (centres undefined) [N1-(4-chloro-3-fluorophenyl)-N2-((1-(2-morpholinoethyl)pyrrolidin-3-yl)methyl)oxalamide], with greater than 100 µM. Then `O=C(NCc1ccco1)C(=O)Nc1ccc(Br)cc1` [N1-(4-bromophenyl)-N2-(furan-2-ylmethyl)oxalamide], with greater than 100 µM; and `CC1(C)CC(CNC(=O)C(=O)Nc2ccc(Cl)c(F)c2)CC(C)(C)N1` [N1-(4-chloro-3-fluorophenyl)-N2-((2,2,6,6-tetramethylpiperidin-4-yl)methyl)oxalamide], with 33 µM; and `CCN1CCCC1CNC(=O)C(=O)Nc1ccc(Cl)cc1` (centres undefined) [N1-(4-chlorophenyl)-N2-((1-ethylpyrrolidin-2-yl)methyl)oxalamide], with 58.6 µM. Consider `N=c1oc2cc(O)ccc2cc1C(=O)Nc1ccc(Cl)cc1` [N-(4-chlorophenyl)-7-hydroxy-2-imino-2H-chromene-3-carboxamide], for which the IC50 is greater than 100 µM. To `O=C(Nc1ccc(Cl)c(F)c1)C(=O)Nc1cnn2c1NCCC2` [N1-(4-chloro-3-fluorophenyl)-N2-(4,5,6,7-tetrahydropyrazolo[1,5-a]pyrimidin-3-yl)oxalamide] belongs greater than 100 µM.

Consider `O=C(NC[C@@H]1CCCN2CCCC[C@H]12)C(=O)Nc1ccc(Cl)c(F)c1` [N1-(4-chloro-3-fluorophenyl)-N2-(((1S,9aR)-octahydro-1H-quinolizin-1-yl)methyl)oxalamide], for which the IC50 was greater than 100 µM. To `O=C(NCC(c1ccc(Cl)cc1)N1CCCC1)C(=O)Nc1ccc(Cl)c(F)c1` (centres undefined) [N1-(4-chloro-3-fluorophenyl)-N2-(2-(4-chlorophenyl)-2-(pyrrolidin-1-yl)ethyl)oxalamide] belongs 61.4 µM; to `O=C(Nc1ccc(Cl)c(F)c1)C(=O)NC1CCc2[nH]ncc2C1` (centres undefined) [N1-(4-chloro-3-fluorophenyl)-N2-(4,5,6,7-tetrahydro-1H-indazol-5-yl)oxalamide], greater than 100 µM. Then `CC(C)C1CCN(CCC(=O)Nc2ccc(Br)cc2)CC1` [trans-1-(3-(4-bromophenylamino)-3-oxopropyl)-4-isopropylpiperidinium], with greater than 100 µM; and `CN(C)C(CNC(=O)C(=O)Nc1ccc(Cl)c(F)c1)N1CCCC1` (centres undefined) [N1-(4-chloro-3-fluorophenyl)-N2-(2-(dimethylamino)-2-(pyrrolidin-1-yl)ethyl)oxalamide], with greater than 100 µM; and `O=C(NC[C@@H]1COC2(CCCC2)O1)C(=O)Nc1ccc(Cl)cc1` [(R)-N1-(1,4-dioxaspiro[4.4]nonan-2-ylmethyl)-N2-(4-chlorophenyl)oxalamide], with greater than 100 µM. Regarding `O=C(NCC(c1ccco1)N1CCCC1)C(=O)Nc1ccc(Cl)c(F)c1` (centres undefined) [N1-(4-chloro-3-fluorophenyl)-N2-(2-(furan-2-yl)-2-(pyrrolidin-1-yl)ethyl)oxalamide], the half-inhibitory concentration (IC50) is greater than 100 µM.

As for `CC1(C)NC(=O)N(C[C@H](O)COc2ccc(Cl)cc2)C1=O` [(S)-3-(3-(4-chlorophenoxy)-2-hydroxypropyl)-5,5-dimethylimidazolidine-2,4-dione], the IC50 was greater than 100 µM. Regarding `COc1cc(NC(=O)C(=O)NC2CC(C)(C)NC(C)(C)C2)ccc1Cl` [N1-(4-chloro-3-methoxyphenyl)-N2-(2,2,6,6-tetramethylpiperidin-4-yl)oxalamide], the IC50 was greater than 100 µM.

For `O=C(Nc1ccnc(=O)[nH]1)c1sc2cc(Cl)ccc2c1Cl` [3,6-dichloro-N-(2-oxo-1,2-dihydropyrimidin-4-yl)benzo[b]thiophene-2-carboxamide], the IC50 was greater than 100 µM.

For `CC(C)N1CCC(NC(=O)C(=O)Nc2ccc(Cl)c(F)c2)CC1` [N1-(4-chloro-3-fluorophenyl)-N2-(1-isopropylpiperidin-4-yl)oxalamide], the IC50 was greater than 100 µM. Then `COc1cccc(CNC(=O)C(=O)Nc2ccc(Cl)cc2)c1` [N1-(4-chlorophenyl)-N2-(3-methoxybenzyl)oxalamide], with greater than 100 µM; and `O=C(Nc1ccc(Br)cc1)c1cc(CN2CCCC2)on1` [N-(4-bromophenyl)-5-(pyrrolidin-1-ylmethyl)isoxazole-3-carboxamide], with greater than 100 µM; and `O=C(NCc1ccc2c(c1)OCO2)C(=O)Nc1ccc(Br)cc1` [N1-(benzo[d][1,3]dioxol-5-ylmethyl)-N2-(4-bromophenyl)oxalamide], with greater than 100 µM. To `CC1(C)CC(NC(=O)C(=O)Nc2c[nH]c3ncccc23)CC(C)(C)N1` [N1-(1H-pyrrolo[2,3-b]pyridin-3-yl)-N2-(2,2,6,6-tetramethylpiperidin-4-yl)oxalamide] belongs greater than 100 µM; to `COc1cccc(NC(=O)C(=O)Nc2ccc(Cl)cc2)c1` [N1-(4-chlorophenyl)-N2-(3-methoxyphenyl)oxalamide], greater than 100 µM; to `CN1CCC(CNC(=O)C(=O)Nc2ccc(Cl)c(F)c2)CC1` [N1-(4-chloro-3-fluorophenyl)-N2-((1-methylpiperidin-4-yl)methyl)oxalamide], greater than 100 µM. Then `CC1(C)CC(NC(=O)C(=O)Nc2ccc(-n3cc(CCc4ccccc4)nn3)cc2)CC(C)(C)N1` [N1-(4-(4-phenethyl-1H-1,2,3-triazol-1-yl)phenyl)-N2-(2,2,6,6-tetramethylpiperidin-4-yl)oxalamide], with greater than 100 µM; and `O=C(NCC1CCNCC1)C(=O)Nc1ccc(Cl)c(F)c1` [N1-(4-chloro-3-fluorophenyl)-N2-(piperidin-4-ylmethyl)oxalamide], with greater than 100 µM. For the compound `CN1CCCC(NC(=O)C(=O)Nc2ccc(Cl)c(F)c2)C1` (centres undefined) [N1-(4-chloro-3-fluorophenyl)-N2-(1-methylpiperidin-3-yl)oxalamide], the IC50 is greater than 100 µM. As for `C[C@H](Sc1nc(N)cc(N)n1)C(=O)Nc1ccc(Cl)cc1` [(S)-N-(4-chlorophenyl)-2-(4,6-diaminopyrimidin-2-ylthio)propanamide], the IC50 is greater than 100 µM. For the compound `CN1CCCC(CNC(=O)C(=O)Nc2ccc(Cl)c(F)c2)C1` (centres undefined) [N1-(4-chloro-3-fluorophenyl)-N2-((1-methylpiperidin-3-yl)methyl)oxalamide], the IC50 is greater than 100 µM.
